Calls of active or inactive are those of the source.
Legend:
Format in all cases: functional
Triticum aestivum [1] = experiment: Inhibition of intact Triticum aestivum (wheat) seed germination assessed as appearance of sprouts at 500 ppm after 4 days relative to wheat grains RL4137 germination
Triticum aestivum [2] = experiment: Growth inhibition of intact Triticum aestivum (wheat) seed assessed as appearance of distinct rootlets at 500 ppm after 4 days relative to wheat grains RL4137 germination
Triticum aestivum [3] = experiment: Growth inhibition of intact Triticum aestivum (wheat) seed assessed as appearance of sprouts at 500 ppm after 4 days relative to wheat grains RL4137 germination
Triticum aestivum [4] = experiment: Inhibition of intact Triticum aestivum (wheat) seed germination assessed as appearance of distinct rootlets at 500 ppm after 4 days relative to wheat grains RL4137 germination

CC(O)c1ccccc1 (racemic)
active: inhibition (Triticum aestivum [1]) | growth inhibition (GI) (Triticum aestivum [2]) | growth inhibition (GI) (Triticum aestivum [3]) | inhibition (Triticum aestivum [4])

CC1(C)CCC[C@@]2(C)OC(=O)C=C12
active: inhibition (Triticum aestivum [1]) | growth inhibition (GI) (Triticum aestivum [2]) | growth inhibition (GI) (Triticum aestivum [3]) | inhibition (Triticum aestivum [4])

C[C@@H](O)c1ccccc1
active: inhibition (Triticum aestivum [1]) | growth inhibition (GI) (Triticum aestivum [2]) | growth inhibition (GI) (Triticum aestivum [3]) | inhibition (Triticum aestivum [4])

CC1(C)CCC[C@]2(C)OC(=O)C=C12
active: inhibition (Triticum aestivum [1]) | growth inhibition (GI) (Triticum aestivum [2]) | growth inhibition (GI) (Triticum aestivum [3]) | inhibition (Triticum aestivum [4])

CC1(C)CCCC2(C)OC(=O)C=C12 (racemic)
active: inhibition (Triticum aestivum [1]) | growth inhibition (GI) (Triticum aestivum [2]) | growth inhibition (GI) (Triticum aestivum [3]) | inhibition (Triticum aestivum [4])

C[C@H](O)c1ccccc1
active: inhibition (Triticum aestivum [1]) | growth inhibition (GI) (Triticum aestivum [2]) | growth inhibition (GI) (Triticum aestivum [3]) | inhibition (Triticum aestivum [4])

Reference: ChEMBL document CHEMBL3046930, “Germination and growth inhibitors from wheat (Triticum aestivum L.) husks” (2002)
